Laboratory results reported in the NIST ThermoML archive (doi:10.1016/j.jct.2017.06.001).
± gives the expanded uncertainty stated by the source.

Experiments:
[1] = xn = mol fraction of the nth substance listed; settings: 100 kPa, Liquid, x2 = 0; for mass density: Vibrating tube method; for speed of sound: Frequency=5 MHz, Pulse-echo method
[2] = 100 kPa, Liquid; for mass density: Vibrating tube method; for speed of sound: Frequency=5 MHz, Pulse-echo method

O [water] + OCCCCCO
mass density ([1]; 278.15 K): 999.97 ± 0.16 kg/m3 | mass density ([1]; 283.15 K): 999.7 ± 0.16 kg/m3 | speed of sound ([1]; 308.15 K): 1519.2 ± 1.1 m/s | speed of sound ([1]; 313.15 K): 1528.8 ± 1.2 m/s | speed of sound ([1]; 318.15 K): 1536.7 ± 1.2 m/s | mass density ([1]; 323.15 K): 988.03 ± 0.16 kg/m3 | mass density ([1]; 328.15 K): 985.68 ± 0.16 kg/m3 | mass density ([1]; 333.15 K): 983.19 ± 0.16 kg/m3

OCCCCCO [1,5-pentanediol]
mass density ([2]; 278.15 K): 998 ± 2.1 kg/m3 | mass density ([2]; 283.15 K): 995 ± 2.1 kg/m3 | speed of sound ([2]; 288.15 K): 1616.4 ± 2.3 m/s | mass density ([2]; 288.15 K): 992.2 ± 2.1 kg/m3 | speed of sound ([2]; 293.15 K): 1605 ± 2.3 m/s | mass density ([2]; 293.15 K): 989.3 ± 2.1 kg/m3 | speed of sound ([2]; 298.15 K): 1593.8 ± 2.3 m/s | mass density ([2]; 298.15 K): 986.5 ± 2.1 kg/m3 | speed of sound ([2]; 303.15 K): 1582.5 ± 2.3 m/s | mass density ([2]; 303.15 K): 983.6 ± 2.1 kg/m3 | speed of sound ([2]; 308.15 K): 1571.3 ± 2.3 m/s | mass density ([2]; 308.15 K): 980.7 ± 2.1 kg/m3 | speed of sound ([2]; 313.15 K): 1560.2 ± 2.3 m/s | mass density ([2]; 313.15 K): 977.8 ± 2.1 kg/m3 | speed of sound ([2]; 318.15 K): 1549 ± 2.3 m/s | mass density ([2]; 318.15 K): 974.9 ± 2.1 kg/m3 | mass density ([2]; 323.15 K): 971.9 ± 2.1 kg/m3 | mass density ([2]; 328.15 K): 969 ± 2.1 kg/m3 | mass density ([2]; 333.15 K): 965.9 ± 2.1 kg/m3
